Experimental data reported in patent US9474790B2, “Stable, protracted GLP-1/glucagon receptor co-agonists for medical use” (Novo Nordisk A/S, priority 2013, dated 2016).
Numbered stars: 1 amine (or outer) side, 2 acyl side, 3 side chain; on linkers, the order of the positions; unused ones are H or OH. Bridge positions count the residues as written; N and C are the ends. Square brackets hold non-standard residues; d marks the D form. Side chains are listed from the residue outwards. Peptide text beside a SMILES is read from it. I, II: the chains in the order shown. * marks the point of attachment. C18 diacid = O=C(O)CCCCCCCCCCCCCCCCC(=O)*; γGlu = O=C(O)[C@H](CCC(=O)[*:2])N[*:1]; Ac4c = NC1(C(=O)O)CCC1; AEEA = NCCOCCOCC(=O)O; Aib = CC(C)(N)C(=O)O

Target: T1, human glucagon receptor (Homo sapiens, UniProt P47871)
T1 construct: expressed in transfected cells; host or cells: BHK cells (parent BHK570, CRE luciferase clone BHK/KZ10-20-48), clone pLJ6'-4-25
Assay: Glucagon receptor binding, 125I-glucagon displacement SPA on isolated membranes
Settings: displacement of 125I-glucagon from membranes; read-out: IC50 GlucR
Method: The purpose of this assay was to test the in vitro receptor binding activity (i.e. affinity) of the glucagon derivatives of the invention. The receptor binding activity is a measure of affinity of a derivative for the human glucagon receptor.
The receptor binding of each compound to the human glucagon receptor was measured in a displacement binding assay. In this type of assay a labelled ligand (in this case 125I-glucagon) is bound to the receptor. Each derivative was added in a series of concentrations to isolated membranes containing the human glucagon receptor and displacement of the labelled ligand is monitored. The receptor binding was reported as the concentration at which half of the labelled ligand is displaced from the receptor, the IC50 value.
In order to test the binding of the derivatives to albumin, the assay may be performed in a very low concentration of serum albumin (max. 0.001% final assay concentration) as well as in the presence of a higher concentration of serum albumin (0.2% final assay concentration). An increase of the IC50 value, in the presence of serum albumin indicates an affinity to serum albumin and represents a method to predict a protracted pharmacokinetic profile of the test substance in animal models.
The following chemicals were used in the assay: DMEM w Glutamax (Gibco 61965-026), Pen/strep (Invitrogen 15140-122), G418 (Invitrogen 10131-027), Versene (Gibco 15040), 1 M Hepes (Gibco 15630), PBS (Invitrogen 14190-094), fetal calf serum (Invitrogen 16140-071), MgCl2 (Merck 1.05832.1000), EDTA (Invitrogen 15575-038), CaCl2 (Sigma, C5080), Tween 20 (Amresco 0850C335), ovalbumin (Sigma A5503), SPA particles (wheat germ agglutinin (WGA) SPA beads, Perkin Elmer RPNQ0001), [125I]-glucagon (produced in-house), OptiPlate™-96 (Packard 6005290).
HME buffer consisted of 25 mM HEPES, 2 mM MgCl2 and 1 mM EDTA, and pH was adjusted to 7.4. Assay buffer consisted of 50 mM HEPES supplemented with 5 mM MgCl2, 1 mM CaCl2, 0.02% Tween 20 and 0.1% Ovalbumin, and pH was adjusted to 7.4.
The cells used in this assay (clone BHK hGCGR A3*25) were BHK cells stable transfected with an expression plasmid containing the cDNA encoding the human glucagon receptor.
The cells were grown at 5% CO2 in DMEM, 10% fetal calf serum, 1% Pen/Strep (Penicillin/Streptomycin) and 1.0 mg/ml of the selection marker G418. To make a membrane preparation the cells were grown to approximately 80% confluence. The cells were washed twice in phosphate-buffered saline and harvested. The cells were pelleted using a brief centrifugation and the cell pellet was kept on ice. Lyse the cells by adding approx. 5 ml HME buffer, mix by pipetting and snap freeze in liquid nitrogen. Thaw quickly and add HME buffer to 10 ml. The cell pellet was homogenised with an ULTRA-THURRAX dispersing instrument for 20-30 sec. The homogenate was centrifuged at 20.000×G, 4° C. for 10 min. The pellet was re-suspended (homogenised) in 1-2 ml HME buffer. The protein concentration was determined. The membranes were aliquoted and snap-frozen in liquid nitrogen and stored at minus 80° C.
1. For the receptor binding assay, 50 μl of the assay buffer was added to each well of an assay plate.
2. Test compounds were serially diluted to give the following concentrations: 8×10EE-7 M, 8×10EE-8 M, 8×10EE-9 M, 8×10EE-10 M, 8×10EE-11 M, 8×10EE-12 M and 8×10EE-13 M. Twenty-five μl were added to appropriate wells in the assay plate.
3. Cell membrane aliquots were thawed and diluted to their working concentration. Fifty μl were added to each well in the assay plate.
4. WGA SPA beads were suspended in assay buffer at 20 mg/ml. The suspension was diluted to 10 mg/ml in assay buffer just prior to addition to the assay plate. Fifty μl were added to each well in the assay plate.
5. The incubation was started by adding 25 μl of 480 pM solution of [125I]-glucagon to each well of the assay plate. A 25 μl aliquot was reserved for measuring total counts/well.
6. The assay plate was incubated for 2 h at 25° C.
7. […]

T1 sequence (P47871 26-477): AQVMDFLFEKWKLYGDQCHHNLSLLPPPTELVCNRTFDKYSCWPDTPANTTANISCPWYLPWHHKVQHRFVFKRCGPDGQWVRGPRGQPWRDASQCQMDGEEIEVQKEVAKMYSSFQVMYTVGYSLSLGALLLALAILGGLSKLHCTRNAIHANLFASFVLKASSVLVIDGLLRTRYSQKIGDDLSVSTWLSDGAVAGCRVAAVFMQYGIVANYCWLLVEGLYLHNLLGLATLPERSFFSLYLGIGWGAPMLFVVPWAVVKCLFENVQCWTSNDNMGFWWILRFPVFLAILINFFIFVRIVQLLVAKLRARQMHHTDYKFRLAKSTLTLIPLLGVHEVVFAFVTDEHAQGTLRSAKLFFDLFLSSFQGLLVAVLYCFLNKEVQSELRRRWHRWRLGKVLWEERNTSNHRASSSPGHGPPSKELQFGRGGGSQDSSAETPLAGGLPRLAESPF

SMILES	IC50 [nM]
CC(C)C[C@H](NC(=O)[C@H](Cc1ccc(O)cc1)NC(=O)[C@H](CCCCN)NC(=O)[C@H](CO)NC(=O)[C@H](CC(C)C)NC(=O)[C@H](CC(=O)O)NC(=O)[C@H](CO)NC(=O)[C@@H](NC(=O)[C@H](Cc1ccccc1)NC(=O)[C@@H](NC(=O)CNC(=O)[C@H](Cc1c[nH]cn1)NC(=O)C(C)(C)NC(=O)[C@@H](N)Cc1c[nH]cn1)[C@@H](C)O)[C@@H](C)O)C(=O)N[C@@H](CCC(=O)O)C(=O)N[C@@H](CO)C(=O)N[C@@H](CCCNC(=N)N)C(=O)N[C@@H](CCCNC(=N)N)C(=O)N[C@@H](C)C(=O)N[C@@H](CCCNC(=N)N)C(=O)N[C@@H](CCC(=O)O)C(=O)N[C@@H](Cc1ccccc1)C(=O)N[C@H](C(=O)N[C@@H](CCC(N)=O)C(=O)N[C@@H](Cc1c[nH]c2ccccc12)C(=O)N[C@@H](CC(C)C)C(=O)N[C@@H](CC(C)C)C(=O)N[C@@H](CCCCNC(=O)CC[C@H](NC(=O)COCCOCCNC(=O)COCCOCCNC(=O)CC[C@H](NC(=O)CC[C@H](NC(=O)CCCCCCCCCCCCCCCCC(=O)O)C(=O)O)C(=O)O)C(=O)O)C(=O)N[C@H](C(N)=O)[C@@H](C)O)C(C)C [Example 30, N^ε28-[(4S)-4-carboxy-4-[[2-[2-[2-[[2-[2-[2-[[(4S)-4-carboxy-4-[[(4S)-4-carboxy-4-(17-carboxyheptadecanoylamino)butanoyl]amino]butanoyl]amino]ethoxy]ethoxy]acetyl]amino]ethoxy]ethoxy]acetyl]amino]butanoyl]-[Aib2,His3,Leu10,Glu15,Arg20,Glu21,Leu27,Lys28]-Glucagon amide] (H-H[Aib]HGTFTSDLSKYLESRRAREFVQWLLK([γGlu-AEEA-AEEA-γGlu-γGlu-C18 diacid])T-NH2; N-terminus assumed)	0.5
CC(C)C[C@H](NC(=O)[C@H](Cc1ccc(O)cc1)NC(=O)[C@H](CCCCN)NC(=O)[C@H](CO)NC(=O)[C@H](CC(C)C)NC(=O)[C@H](CC(=O)O)NC(=O)[C@H](CO)NC(=O)[C@@H](NC(=O)[C@H](Cc1ccccc1)NC(=O)[C@@H](NC(=O)CNC(=O)[C@H](Cc1c[nH]cn1)NC(=O)C(C)(C)NC(=O)[C@@H](N)Cc1c[nH]cn1)[C@@H](C)O)[C@@H](C)O)C(=O)N[C@@H](CCC(=O)O)C(=O)N[C@@H](CO)C(=O)N[C@@H](CCCNC(=N)N)C(=O)N[C@@H](CCCNC(=N)N)C(=O)N[C@@H](C)C(=O)N[C@@H](CCCNC(=N)N)C(=O)N[C@@H](CCC(=O)O)C(=O)N[C@@H](Cc1ccccc1)C(=O)N[C@H](C(=O)N[C@@H](CCC(N)=O)C(=O)N[C@@H](Cc1c[nH]c2ccccc12)C(=O)N[C@@H](CC(C)C)C(=O)N[C@@H](CC(C)C)C(=O)N[C@@H](CCCCNC(=O)CC[C@H](NC(=O)CC[C@H](NC(=O)COCCOCCNC(=O)COCCOCCNC(=O)CC[C@H](NC(=O)CCCCCCCCCCCCCCCCC(=O)O)C(=O)O)C(=O)O)C(=O)O)C(=O)N[C@H](C(N)=O)[C@@H](C)O)C(C)C [Example 33, N^ε28-[(4S)-4-carboxy-4-[[(4S)-4-carboxy-4-[[2-[2-[2-[[2-[2-[2-[[(4S)-4-carboxy-4-(17-carboxyheptadecanoylamino)butanoyl]amino]ethoxy]ethoxy]acetyl]amino]ethoxy]ethoxy]acetyl]amino]butanoyl]amino]butanoyl]-[Aib2,His3,Leu10,Glu15,Arg20,Glu21,Leu27,Lys28]-Glucagon amide] (H-H[Aib]HGTFTSDLSKYLESRRAREFVQWLLK([γGlu-γGlu-AEEA-AEEA-γGlu-C18 diacid])T-NH2; N-terminus assumed)	2
CC(C)C[C@H](NC(=O)[C@H](Cc1ccc(O)cc1)NC(=O)[C@H](CCCCN)NC(=O)[C@H](CO)NC(=O)[C@H](CC(C)C)NC(=O)[C@H](CC(=O)O)NC(=O)[C@H](CO)NC(=O)[C@@H](NC(=O)[C@H](Cc1ccccc1)NC(=O)[C@@H](NC(=O)CNC(=O)[C@H](Cc1c[nH]cn1)NC(=O)C(C)(C)NC(=O)[C@@H](N)Cc1c[nH]cn1)[C@@H](C)O)[C@@H](C)O)C(=O)N[C@@H](CCC(=O)O)C(=O)N[C@@H](CO)C(=O)N[C@@H](CCCCN)C(=O)N[C@@H](CCCNC(=N)N)C(=O)N[C@@H](C)C(=O)N[C@@H](CCCNC(=N)N)C(=O)N[C@@H](CCC(=O)O)C(=O)N[C@@H](Cc1ccccc1)C(=O)N[C@H](C(=O)N[C@@H](CCC(N)=O)C(=O)N[C@@H](Cc1c[nH]c2ccccc12)C(=O)N[C@@H](CC(C)C)C(=O)N[C@@H](CC(C)C)C(=O)N[C@@H](CCCCNC(=O)CC[C@H](NC(=O)CC[C@H](NC(=O)CC[C@H](NC(=O)CCCCCCCCCCCCCCCCC(=O)O)C(=O)O)C(=O)O)C(=O)O)C(=O)N[C@H](C(N)=O)[C@@H](C)O)C(C)C [Example 34, N^ε28-[(4S)-4-carboxy-4-[[(4S)-4-carboxy-4-[[(4S)-4-carboxy-4-(17-carboxyheptadecanoylamino)butanoyl]amino]butanoyl]amino]butanoyl]-[Aib2,His3,Leu10,Glu15,Lys17,Arg20,Glu21,Leu27,Lys28]-Glucagon amide] (H-H[Aib]HGTFTSDLSKYLESKRAREFVQWLLK([γGlu-γGlu-γGlu-C18 diacid])T-NH2; N-terminus assumed)	0.2
CC(C)C[C@H](NC(=O)[C@H](Cc1ccc(O)cc1)NC(=O)[C@H](CCCCN)NC(=O)[C@H](CO)NC(=O)[C@H](CC(C)C)NC(=O)[C@H](CC(=O)O)NC(=O)[C@H](CO)NC(=O)[C@@H](NC(=O)[C@H](Cc1ccccc1)NC(=O)[C@@H](NC(=O)CNC(=O)[C@H](Cc1c[nH]cn1)NC(=O)C1(NC(=O)[C@@H](N)Cc2c[nH]cn2)CCC1)[C@@H](C)O)[C@@H](C)O)C(=O)N[C@@H](CCC(=O)O)C(=O)N[C@@H](CO)C(=O)N[C@@H](CCCNC(=N)N)C(=O)N[C@@H](CCCNC(=N)N)C(=O)N[C@@H](C)C(=O)N[C@@H](CCC(N)=O)C(=O)N[C@@H](CC(=O)O)C(=O)N[C@@H](Cc1ccccc1)C(=O)N[C@H](C(=O)N[C@@H](CCC(N)=O)C(=O)N[C@@H](Cc1c[nH]c2ccccc12)C(=O)N[C@@H](CC(C)C)C(=O)N[C@@H](CC(C)C)C(=O)N[C@@H](CCCCNC(=O)CNC(=O)[C@H](CO)NC(=O)[C@H](CCC(=O)O)NC(=O)CNC(=O)[C@H](CO)NC(=O)CC[C@H](NC(=O)CC[C@H](NC(=O)CCCCCCCCCCCCCCCCC(=O)O)C(=O)O)C(=O)O)C(=O)N[C@H](C(N)=O)[C@@H](C)O)C(C)C [Example 35, N^ε28-[2-[[(2S)-2-[[(2S)-4-carboxy-2-[[2-[[(2S)-2-[[(4S)-4-carboxy-4-[[(4S)-4-carboxy-4-(17-carboxyheptadecanoylamino)butanoyl]amino]butanoyl]amino]-3-hydroxypropanoyl]amino]acetyl]amino]butanoyl]amino]-3-hydroxypropanoyl]amino]acetyl]-[Acb2,His3,Leu10,Glu15, Leu27,Lys28]-Glucagon amide] (I: H-H[Ac4c]HGTFTSDLSKYLESRRAQDFVQWLLKT-NH2 / II: {C18 diacid-γGlu-γGlu}-SGESG; amide I:28-II:C; N-terminus assumed)	0.7
